Literature values as cited in US20070053968A1 (Wyeth, priority 2005, published 2007).

Tests used:
[1] = biological target: neuronal norepinephrine re-uptake (Homo sapiens, UniProt P23975)
dopamine re-uptake = dopamine re-uptake (Homo sapiens, UniProt Q01959)
[2] = oral administration, versus venlafaxine, ODV or other salts of ODV
[3] = compared with ODV free base
[4] = compared with ODV free base; remark: listed apart in the source
[5] = biological target: H1-histaminergic receptors (Homo sapiens, UniProt P35367)
[6] = versus venlafaxine

Chain of dopamine re-uptake (Q01959 whole entry): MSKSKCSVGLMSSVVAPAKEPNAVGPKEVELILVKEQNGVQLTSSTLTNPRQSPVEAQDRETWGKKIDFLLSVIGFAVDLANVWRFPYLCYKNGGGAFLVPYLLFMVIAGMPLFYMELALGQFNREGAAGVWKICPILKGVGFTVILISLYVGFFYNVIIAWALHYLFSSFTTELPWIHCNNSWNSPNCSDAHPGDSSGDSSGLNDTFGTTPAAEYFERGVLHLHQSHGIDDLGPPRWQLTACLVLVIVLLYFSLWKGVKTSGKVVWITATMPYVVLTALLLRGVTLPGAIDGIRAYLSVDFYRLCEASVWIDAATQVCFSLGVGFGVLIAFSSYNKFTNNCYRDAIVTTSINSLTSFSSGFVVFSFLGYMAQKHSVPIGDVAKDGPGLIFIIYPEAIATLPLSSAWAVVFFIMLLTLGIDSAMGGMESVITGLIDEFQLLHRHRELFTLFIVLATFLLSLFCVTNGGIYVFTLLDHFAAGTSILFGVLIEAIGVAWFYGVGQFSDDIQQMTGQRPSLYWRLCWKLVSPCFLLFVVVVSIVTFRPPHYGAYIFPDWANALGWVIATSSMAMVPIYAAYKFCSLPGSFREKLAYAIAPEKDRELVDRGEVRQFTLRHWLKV
Chain of H1-histaminergic receptors (P35367 whole entry): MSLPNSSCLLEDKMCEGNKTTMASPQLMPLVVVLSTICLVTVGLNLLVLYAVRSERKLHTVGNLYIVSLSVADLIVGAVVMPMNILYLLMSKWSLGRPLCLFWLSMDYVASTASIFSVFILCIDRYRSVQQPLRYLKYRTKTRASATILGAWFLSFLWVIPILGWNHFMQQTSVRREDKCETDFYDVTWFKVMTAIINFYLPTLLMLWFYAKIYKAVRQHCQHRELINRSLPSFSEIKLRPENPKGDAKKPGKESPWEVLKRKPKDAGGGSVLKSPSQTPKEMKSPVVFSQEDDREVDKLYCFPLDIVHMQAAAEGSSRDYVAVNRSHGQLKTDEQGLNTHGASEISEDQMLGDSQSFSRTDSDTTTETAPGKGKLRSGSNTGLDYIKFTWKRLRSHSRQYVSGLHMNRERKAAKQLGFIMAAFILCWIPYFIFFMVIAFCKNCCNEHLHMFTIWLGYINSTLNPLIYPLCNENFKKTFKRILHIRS
Chain of neuronal norepinephrine re-uptake (P23975 whole entry): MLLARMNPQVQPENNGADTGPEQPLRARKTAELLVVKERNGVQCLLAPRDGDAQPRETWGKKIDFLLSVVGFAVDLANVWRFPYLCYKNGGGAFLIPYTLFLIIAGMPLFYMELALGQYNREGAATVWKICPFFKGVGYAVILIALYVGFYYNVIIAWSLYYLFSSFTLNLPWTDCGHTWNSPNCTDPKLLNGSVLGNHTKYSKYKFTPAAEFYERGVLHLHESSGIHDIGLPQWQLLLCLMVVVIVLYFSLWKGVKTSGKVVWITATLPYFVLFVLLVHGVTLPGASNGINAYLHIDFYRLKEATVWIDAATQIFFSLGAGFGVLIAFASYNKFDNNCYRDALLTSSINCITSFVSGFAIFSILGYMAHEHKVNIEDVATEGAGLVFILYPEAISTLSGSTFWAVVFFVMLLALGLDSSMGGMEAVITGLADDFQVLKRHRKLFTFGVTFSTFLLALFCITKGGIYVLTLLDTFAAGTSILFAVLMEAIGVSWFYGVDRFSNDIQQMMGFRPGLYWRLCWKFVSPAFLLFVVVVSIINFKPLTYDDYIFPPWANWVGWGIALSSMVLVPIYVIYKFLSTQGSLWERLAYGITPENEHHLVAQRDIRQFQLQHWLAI

Structure (SMILES)	affinity for α1-adrenergic receptors (α1-adrenergic receptors)	inhibition of neuronal norepinephrine re-uptake [1]	inhibition of dopamine re-uptake (dopamine re-uptake)	incidence of nausea, vomiting, diarrhea, abdominal pain, headache, vaso-vagal malaise, and/or trismus [2]	bioavailability [3]	permeability [4]	affinity for muscarinic receptors (muscarinic receptors)	affinity for H1-histaminergic receptors [5]	solubility compared with venlafaxine [6]
COc1ccc(C(CN(C)C)C2(O)CCCCC2)cc1 (racemic) [venlafaxine, (±)-1-[2-(dimethylamino)-1-(4-methoxyphenyl)ethyl]-cyclohexanol]	no significant affinity	potent inhibitors	weak inhibitors	–	–	–	–	–	–
CN(C)CC(c1ccc(O)cc1)C1(O)CCCCC1.O=C(O)CCC(=O)O (centres unmarked) [ODV succinate]	–	–	–	lower incidence	improved	improved	–	–	–
CN(C)CC(c1ccc(O)cc1)C1(O)CCCCC1 (centres unmarked) [ODV]	no significant affinity	–	weak inhibitors	–	–	–	no significant affinity	no significant affinity	more soluble
